According to patent publication US20250188079A1, “INHIBITING CYCLIC AMP-RESPONSIVE ELEMENT-BINDING PROTEIN (CREB)” (Forma Therapeutics, Inc., priority 2019, published 2025):

Molecular target: CBP (Homo sapiens (Human), UniProt Q92793)
Experiment: HTRF biochemical assay for CBP activity (TR-FRET, bromodomain)
Format: binding
Conditions: geometric mean, 10-point 3-fold dilution 33 μM to 1.7 nM, read-out: BROMO IC50 TRF TB CBP (μM gmean)
Protocol: Example 1: HTRF Biochemical Assay for CBP Activity
The assay was performed in a final volume of 6 μL in assay buffer containing 50 mM Hepes (pH 7.5, (0.5M Hepes, pH 7.5 solution; Teknova H1575)), 0.5 mM GSH, 0.01% BGG (0.22 p M filtered, Sigma, G7516-25G), 0.005% BSA (0.22 μM filtered, EMD Millipore Corporation, 126575) and 0.01% Triton X-100 (Sigma, T9284-10L). Nanoliter quantities of 10-point, 3-fold serial dilution in DMSO were pre-dispensed into 1536 assay plates (Corning, #3724BC) for a final test concentration of 33 μM to 1.7 nM, top to lowest dose, respectively. 3 μL of 2×Protein and 3 μL of 2×Peptide Ligand were added to assay plates (pre-stamped with compound). Plates were incubated for varying times at room temperature prior to measuring the signal. TR-FRET (Time-Resolved Fluorescence Resonance Energy Transfer) was measured on the PHERAstar (BMG, equipped with HTRF optic module [337/520/490]) or on the Envision (PerkinElmer, equipped with the TRF Laser unit, TRF dual mirror D400/D505 and emission filters M520 and M495). Data were reported as percent inhibition compared with control wells based on the following equation: % inh=1−((TR-FRET ratio−AveLow)/(AveHigh−AveLow)) where TR-FRET ratio=(Fluorescence at 520 nm/Fluorescence at 490 nm)*10000), AveLow=average TR-FRET ratio of no enzyme control (n=32), and AveHigh=average TR-FRET ratio of DMSO control (n=32). IC50 values were determined by curve fitting of the standard 4 parameter logistic fitting algorithm included in the Activity Base software package: IDBS XE Designer Model205. Data is fitted using the Levenburg Marquardt algorithm. As set forth in Table 2 below, an IC50 value of greater than or equal to 0.001 μM and less than or equal to 0.01 μM is marked “++++”; a value greater than 0.01 μM and less than or equal to 0.1 μM is marked “+++”; a value greater than 0.1 μM and less than or equal to 1 μM is marked “++”; and a value greater than 1 μM and less than 1000 μM is marked “+.” Compounds that were not tested in a particular assay are marked “NT.”

Chain of CBP (Q92793 1085-1192): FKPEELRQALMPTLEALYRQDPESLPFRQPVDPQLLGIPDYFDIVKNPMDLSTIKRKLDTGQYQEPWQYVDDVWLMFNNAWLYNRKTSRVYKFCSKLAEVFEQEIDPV

Compound | IC50
COC(=O)N1CCc2ccc3c(nc(C4CCCCC4)n3[C@H](C)C[C@H]3CCCC[C@H]3C(=O)O)c2C1 [Compound 239] | 0.01 to 0.1 µM
COC(=O)N1CCc2ccc3c(nc([C@H]4CC[C@H](C(=O)O)CC4)n3C[C@H]3CCc4ccccc4C3)c2C1 [Compound 169] | 0.001 to 0.01 µM
COC(=O)N1CCc2ccc3c(nc(N4CCC(C(=O)O)CC4)n3[C@@H](C)C(F)(F)c3ccccc3)c2C1 (single isomer, unassigned) [Compound 24] | 0.001 to 0.01 µM
COC(=O)N1CCc2ccc3c(nc(C4CCCCC4)n3[C@@H](C)CC3CCCC[C@@H]3C(=O)O)c2C1 (stereo partly drawn) [Compound 39] | 0.001 to 0.01 µM
COC(=O)N1CCc2ccc3c(nc(C4CCN(C(C)=O)CC4)n3C[C@@H](C(=O)O)c3ccccc3)c2C1 [Compound 62] | 0.001 to 0.01 µM
COC(=O)N1CCc2ccc3c(nc([C@H]4CC[C@H](C(=O)O)CC4)n3[C@@H](C)Cc3ccc(OC(F)F)cc3)c2C1 [Compound 69] | 0.001 to 0.01 µM
COC(=O)N1Cc2c(ccc3c2nc([C@H]2CC[C@H](C(=O)O)CC2)n3[C@H](C)Cc2ccc(F)c(F)c2)C[C@@H]1C [Compound 129] | 0.001 to 0.01 µM
COC(=O)N1CCc2ccc3c(nc(C45CC(C4)C5)n3C[C@H](C(=O)O)c3ccccc3)c2C1 [Compound 128] | 0.001 to 0.01 µM
COC(=O)N1CCc2ccc3c(nc([C@H]4CC[C@@H](C(=O)O)CC4)n3CCn3cc(Cl)cn3)c2C1 [Compound 291] | 0.1 to 1 µM
COC(=O)N1CCc2ccc3c(nc(C4CCCCC4)n3CC[C@@H]3CCC[C@H](C(=O)O)C3)c2C1 [Compound 131] | 0.001 to 0.01 µM
COC(=O)N1CCc2ccc3c(nc([C@H]4CC[C@H](C(=O)O)CC4)n3Cc3ccc4c(c3)OCC4)c2C1 [Compound 86] | 0.001 to 0.01 µM
COC(=O)N1CCc2ccc3c(nc([C@H]4CC[C@H](C(=O)O)CC4)n3[C@@H](C)Cn3ncc4ccccc43)c2C1 [Compound 88] | 0.001 to 0.01 µM
COC(=O)N1CCc2ccc3c(nc([C@H]4CC[C@H](C(=O)O)CC4)n3Cc3ccc(OC)c(F)c3)c2C1 [Compound 94] | 0.001 to 0.01 µM

Results, then the molecule that gave them:

IC50 | Compound
0.01 to 0.1 µM | COC(=O)N1CCc2c(C#N)cc3c(nc([C@H]4CC[C@H](C(=O)O)CC4)n3[C@H](C)Cc3ccccc3)c2C1 [Compound 269]
0.001 to 0.01 µM | COC(=O)N1CCc2ccc3c(nc([C@H]4CC[C@H](C(=O)O)CC4)n3[C@@H](C)Cc3ccccc3)c2C1 [Compound 72]
0.01 to 0.1 µM | COC(=O)N1CCc2ccc3c(nc([C@H]4CC[C@@H](C(=O)O)CC4)n3[C@@H](C)Cc3ccccc3)c2C1 [Compound 230]
0.1 to 1 µM | COC(=O)N1CCc2ccc3c(nc([C@H]4CC[C@H](S(N)(=O)=O)CC4)n3[C@H](C)Cc3ccccc3)c2C1 [Compound 301]
0.001 to 0.01 µM | COC(=O)N1CCc2ccc3c(nc([C@@H]4CCC[C@@H](C(=O)O)C4)n3C(C)Cc3ccccc3)c2C1 (stereo in doubt) [Compound 99, (1R,3R)-3-[8-(methoxycarbonyl)-3-[(2S)-1-phenylpropan-2-yl]-3H,6H,7H,8H,9H-imidazo[4,5-h]isoquinolin-2-yl]cyclohexane-1-carboxylic acid]
0.01 to 0.1 µM | COC(=O)N1CCc2ccc3c(nc([C@@H]4CCC[C@H](C(=O)O)C4)n3[C@@H](C)Cc3ccccc3)c2C1 (single isomer, unassigned) [Compound 203]
0.01 to 0.1 µM | COC(=O)N1CCc2ccc3c(nc([C@H]4CCC[C@H](C(=O)O)C4)n3[C@H](C)Cc3ccccc3Cl)c2C1 (single isomer, unassigned) [Compound 176]
0.01 to 0.1 µM | CNC(=O)N1CCc2ccc3c(nc([C@H]4CC[C@H](C(=O)O)CC4)n3[C@@H](C)Cc3ccccc3)c2C1 [Compound 228]
0.001 to 0.01 µM | COC(=O)N1CCc2c(Cl)cc3c(nc([C@H]4CC[C@H](C(=O)O)CC4)n3[C@@H](C)Cc3ccccc3)c2C1 [Compound 81]
0.001 to 0.01 µM | COC(=O)N1CCc2c(C#N)cc3c(nc([C@H]4CC[C@H](C(=O)O)CC4)n3[C@@H](C)Cc3ccccc3)c2C1 [Compound 52]
0.001 to 0.01 µM | COC(=O)N1CCc2ccc3c(nc([C@H]4CC[C@H](S(=O)(=O)NC(C)=O)CC4)n3[C@@H](C)Cc3ccccc3)c2C1 [Compound 96]
